From patent publication US9192577B2, “Pharmaceutical compositions comprising a basic drug compound, a surfactant, and a physiologically tolerable water soluble acid” (Janssen Pharmaceutica NV, priority 2002, dated 2015)
Like-named read-outs stand apart in the source and are kept apart here.

Key:
mock-infected MT-4 cells = assay: cytotoxicity (CC50) in mock-infected MT-4 cells (MTT); assay type: cell-based
Procedure: (§1) A rapid, sensitive and automated assay procedure was used for the in vitro evaluation of anti-HIV agents. […] Inhibition of the HIV-induced cytopathic effect was used as the end point. The viability of both HIV- and mock-infected cells was assessed spectrophotometrically via the in situ reduction of 3-(4,5-dimethylthiazol-2-yl)-2,5-diphenyltetrazolium bromide (MTT). The 50% cytotoxic concentration (CC50 in M) was defined as the concentration of compound that reduced the absorbance of the mock-infected control sample by 50%. The percent protection achieved by the compound in HIV-infected cells was calculated by the following formula:
(§2) [formula] whereby (ODT)HIV is the optical density measured with a given concentration of the test compound in HIV-infected cells; (ODC)HIV is the optical density measured for the control untreated HIV-infected cells; (ODC)MOCK is the optical density measured for the control untreated mock-infected cells; all optical density values were determined at 540 nm. The dose achieving 50% protection according to the above formula was defined as the 50% inhibitory concentration (IC50 in M). The ratio of CC50 to IC50 was defined as the selectivity index (SI).

HIV = assay: in vitro anti-HIV assay: inhibition of HIV-induced cytopathic effect in MT-4 cells (MTT); assay type: cell-based; conditions: for pSI: pSI = pCC50-pIC50 (selectivity index CC50/IC50); for pIC50 (M): −log IC50
Procedure: as §1, §2

[1] = 50% protection against HIV-induced cytopathic effect in MT-4 cells, MTT

pIC50 (M) (HIV; [1]) | IC50 (HIV; Human immunodeficiency virus 1, MT4, −log IC50, 50% protection against HIV-induced cytopathic effect in MT-4 cells, MTT) | SMILES | pCC50 (M) (mock-infected MT-4 cells) | pSI (HIV) | pCC50 (M) (mock-infected MT-4 cells; −log CC50, mock-infected MT-4 cells, MTT)
8.8 M |  | Cc1cc(/C(=C\C#N)C(C)C)cc(C)c1Nc1ccnc(Nc2ccc(C#N)cc2)n1 [Compound 150] | 4.8 M | −4.0 | 
9.0 M |  | Cc1cc(CN(C)CCC#N)cc(C)c1Nc1ccnc(Nc2ccc(C#N)cc2)n1 [Compound 75] | 5.0 M | −4.0 | 
8.6 M |  | Cc1cc(CC(C#N)C#N)cc(C)c1Nc1ccnc(Nc2ccc(C#N)cc2)n1 [Compound 144] | 6.4 M | −2.2 | 
9.5 M |  | Cc1cc(CC#N)cc(Cl)c1Nc1ccnc(Nc2ccc(C#N)cc2)n1 [Compound 238] | 5.6 M | −3.9 | 
9.3 M |  | Cc1cc(C(C)CC#N)ccc1Oc1ccnc(Nc2ccc(C#N)cc2)n1 (stereo not shown) [Compound 235] | <4.0 M | <−5.3 | 
8.8 M |  | CC(C#N)=Cc1cc(C)c(Oc2ccnc(Nc3ccc(C#N)cc3)n2)c(C)c1 [Compound 178] | 5.7 M | −3.1 | 
9.1 M |  | Cc1cc(/C(=C/C#N)C(C)C)cc(C)c1Nc1ccnc(Nc2ccc(C#N)cc2)n1 [Compound 149] | 5.3 M | −3.8 | 
8.9 M |  | CC(C#N)=Cc1cc(C)c(Oc2ccnc(Nc3ccc(C#N)cc3)n2)c(C)c1 [Compound 179] | <4.0 M | <−4.9 | 
8.8 M |  | Cc1cc(CC(C)C#N)ccc1Oc1ccnc(Nc2ccc(C#N)cc2)n1 (stereo not shown) [Compound 236] | <4.0 M | <−4.8 | 
9.1 M |  | CC(C#N)=Cc1cc(C)c(Nc2ccnc(Nc3ccc(C#N)cc3)n2)c(C)c1 [Compound 152] | 4.8 M | −4.3 | 
9.4 M |  | Cc1cc(C=C(C#N)CC#N)cc(C)c1Nc1ccnc(Nc2ccc(C#N)cc2)n1 (mixture of isomers) [Compound 147] | 5.7 M | −3.7 | 
9.1 M |  | Cc1cc(/C=C/C(=O)N(C)CC#N)cc(C)c1Oc1ccnc(Nc2ccc(C#N)cc2)n1 [Compound 212] | 5 M | −4.1 | 
 |  | Cc1cc(/C=C/c2cccnc2)cc(C)c1Nc1ccnc(Nc2ccc(C#N)cc2)n1 [Compound 146] |  | −3 | 
 | 0.631 nM | Cc1cc(/C=C/C#N)cc(C)c1Nc1ccnc(Nc2ccc(C#N)cc2)n1 [Compound 10] |  | −2.9 | 6.3 M
9.2 M |  | N#C/C=C/c1ccc(Nc2ccnc(Nc3ccc(C#N)cc3)n2)c(Br)c1 [Compound 244] | 4 M | −5.2 | 
9.3 M |  | Cc1cc(/C=C/C#N)cc(Br)c1Nc1ccnc(Nc2ccc(C#N)cc2)n1 [Compound 248] | 5.7 M | −3.5 | 
8.8 M |  | Cc1cc(CN(C)C=NC#N)cc(C)c1Oc1ccnc(Nc2ccc(C#N)cc2)n1 [Compound 174] | 5.3 M | −3.5 | 
8.4 M |  | C/C(=C\C#N)c1ccc(Oc2ccnc(Nc3ccc(C#N)cc3)n2)c(C)c1 [Compound 232] | <4.0 M | <−4.4 | 
9.1 M |  | CCN(C)C(=O)/C=C/c1cc(C)c(Oc2ccnc(Nc3ccc(C#N)cc3)n2)c(C)c1 [Compound 215] | 5.5 M | −3.6 | 
9.2 M |  | CC(C#N)=Cc1cc(C)c(Nc2ccnc(Nc3ccc(C#N)cc3)n2)c(Br)c1 [Compound 247] | 6.2 M | −3 | 
9.0 M |  | C/C(=C\C#N)c1cc(C)c(Nc2ccnc(Nc3ccc(C#N)cc3)n2)c(C)c1 [Compound 84] | 4.5 M | −4.5 | 
8.7 M |  | Cc1cc(CCC#N)ccc1Oc1ccnc(Nc2ccc(C#N)cc2)n1 [Compound 234] | <4.0 M | <−4.7 | 

pIC50 (M) (HIV; [1]) | IC50 (HIV; Human immunodeficiency virus 1, MT4, −log IC50, 50% protection against HIV-induced cytopathic effect in MT-4 cells, MTT) | SMILES | pCC50 (M) (mock-infected MT-4 cells) | pSI (HIV) | pCC50 (M) (mock-infected MT-4 cells; −log CC50, mock-infected MT-4 cells, MTT)
9.2 M |  | CC(C#N)=Cc1ccc(Oc2ccnc(Nc3ccc(C#N)cc3)n2)c(C)c1 [Compound 231] | <4.0 M | <−5.2 | 
9.5 M |  | Cc1cc(CCC#N)ccc1Nc1ccnc(Nc2ccc(C#N)cc2)n1 [Compound 227] | <4.0 M | <−5.5 | 
8.9 M |  | Cc1cc(/C=C/C#N)ccc1Nc1ccnc(Nc2ccc(C#N)cc2)n1 [Compound 237] | <4.0 M | <−4.9 | 
9.1 M |  | Cc1cc(/C=C/C(=O)N(C)C)cc(C)c1Oc1ccnc(Nc2ccc(C#N)cc2)n1 [Compound 219] | 5 M | −4.1 | 
8.8 M |  | CC(C#N)=Cc1ccc(Nc2ccnc(Nc3ccc(C#N)cc3)n2)c(C)c1 [Compound 229] | <4.0 M | <−4.8 | 
8.7 M |  | CC(=NO)c1cc(C)c(Nc2ccnc(Nc3ccc(C#N)cc3)n2)c(C)c1 [Compound 45] | 5.0 M | −3.8 | 
9.3 M |  | CC(C#N)=Cc1cc(C)c(Nc2ccnc(Nc3ccc(C#N)cc3)n2)c(Cl)c1 [Compound 233] | 5.7 M | −3.6 | 
8.3 M |  | Cc1cc(/C=C\Br)cc(C)c1Oc1ccnc(Nc2ccc(C#N)cc2)n1 [Compound 177] | <4.0 M | <−4.3 | 
8 M |  | CCN(C)C(=O)/C=C/c1cc(C)c(Nc2ccnc(Nc3ccc(C#N)cc3)n2)c(C)c1 [Compound 158] | 5.5 M | −2.5 | 
8.6 M |  | Cc1cc(/C=C/C(=O)N(C)CCC#N)cc(C)c1Oc1ccnc(Nc2ccc(C#N)cc2)n1 [Compound 214] | 5.1 M | −3.5 | 
9.4 M |  | Cc1cc(CN(C)CCC#N)cc(Br)c1Nc1ccnc(Nc2ccc(C#N)cc2)n1 [Compound 241] | 5.3 M | −4.1 | 
8.8 M |  | COc1cc(/C=C/C#N)ccc1Nc1ccnc(Nc2ccc(C#N)cc2)n1 [Compound 245] | 4 M | −4.8 | 
9 M |  | C/C(=C\C#N)c1cc(C)c(Oc2ccnc(Nc3ccc(C#N)cc3)n2)c(C)c1 [Compound 213] | 4.8 M | −4.2 | 
9.2 M |  | Cc1cc(/C=C/C#N)ccc1Oc1ccnc(Nc2ccc(C#N)cc2)n1 [Compound 230] | <4.0 M | <−5.2 | 
8.8 M |  | CC/C(=C\C#N)c1cc(C)c(Nc2ccnc(Nc3ccc(C#N)cc3)n2)c(C)c1 [Compound 148] | 4.9 M | −3.9 | 
8.5 M |  | COc1cc(C=C(C)C#N)ccc1Nc1ccnc(Nc2ccc(C#N)cc2)n1 [Compound 249] | 4 M | −4.5 | 
9.1 M |  | CC(C#N)=Cc1cc(C)c(Nc2ccnc(Nc3ccc(C#N)cc3)n2)c(C)c1 [Compound 151] | 5.5 M | −3.6 | 
9.2 M |  | Cc1cc(CC(C)C#N)cc(C)c1Nc1ccnc(Nc2ccc(C#N)cc2)n1 (stereo not shown) [Compound 153] | 6.3 M | −2.9 | 
8.9 M |  | Cc1cc(/C=C/C#N)cc(-c2ccco2)c1Nc1ccnc(Nc2ccc(C#N)cc2)n1 [Compound 239] | 5 M | −3.9 | 
9.2 M |  | Cc1cc(/C=C/C#N)cc(Cl)c1Nc1ccnc(Nc2ccc(C#N)cc2)n1 [Compound 133] | 4 M | −5.2 | 
 |  | Cc1cc(/C=C/C#N)cc(C)c1Nc1ccnc(Nc2ccc(C#N)cc2)n1 [Compound 1, 4-[[4-[[4-(2-cyanoethenyl)-2,6-dimethylphenyl]amino]-2-pyrimidinyl]amino]benzonitrile] |  | −4.4 | 
8.9 M |  | COc1cc(CCC#N)ccc1Nc1ccnc(Nc2ccc(C#N)cc2)n1 [Compound 251] | 5 M | −3.9 | 

SMILES | pIC50 (M) (HIV; [1]) | IC50 (HIV; Human immunodeficiency virus 1, MT4, −log IC50, 50% protection against HIV-induced cytopathic effect in MT-4 cells, MTT) | pCC50 (M) (mock-infected MT-4 cells) | pSI (HIV) | pCC50 (M) (mock-infected MT-4 cells; −log CC50, mock-infected MT-4 cells, MTT)
Cc1cc(C=CC#N)cc(C)c1Oc1ccnc(Nc2ccc(C#N)cc2)n1 [Compound 25] | 9 M |  |  | −5 | 
